{
  "source": "patent US9913873B2",
  "about": "“Turmeric extract containing soft pastilles” (priority 2013, dated 2018)",
  "assay": "Preliminary finding on bioavailability of pure curcumin",
  "data": [
    {"smiles": "COc1cc(/C=C/C(=O)CC(=O)/C=C/c2ccc(O)c(OC)c2)ccc1O", "note": "[Curcumin]", "values": [
      {"measurement": "Bioavailability", "value": "poor"}
    ]}
  ]
}
